Laboratory results taken from PMC5424325, “Effect of health foods on cytochrome P450-mediated drug metabolism” (Journal of Pharmaceutical Health Care and Sciences, 2017).

Key:
[1] = target: T1, CYP2D6 (Homo sapiens, UniProt P10635); assay: Kinetic analysis of dextromethorphan O-demethylation in Ad-P450 cells; format: in vitro ADME
T1 construct: expressed in transfected cells; host or cells: HepG2 cells infected with Ad-CYP2D6 (0.05 MOI) together with the four other P450 adenoviruses
Protocol: (§1) The cells were seeded in a 48-well tissue culture plate (Becton Dickinson) at 5.0 × 10^4 cells/well. After 48 h, the cells were simultaneously infected with Ad-CYP1A2 at 5 multiplicity of infection (MOI), Ad-CYP2C9 at 1 MOI, Ad-CYP2C19 at 2 MOI, Ad-CYP2D6 at 0.05 MOI, and Ad-CYP3A4 at 10 MOI. […] After shaking, the mixtures were centrifuged at 2500 × g for 10 min and the supernatants were evaporated to dryness at 60 °C in a block incubator. The residues were dissolved in acetonitrile containing 0.1% acetic acid and the solutions were subjected to liquid chromatography/tandem mass spectrometry (LC-MS/MS) analysis.
(§2) The Prominence system (Shimadzu Corporation, Kyoto, Japan) equipped with LCMS-8040 system (Shimadzu Corporation) was used for LC-MS/MS analysis with an electrospray ionization interface. The ionization mode used was positive in the multiple reaction monitoring. The chromatographic separation was performed on Xterra MS C18 columns (2.1 mm × 100 mm, 5 μm) (Waters, Milford, MA, USA). The column oven temperature was maintained at 40 °C. The mobile phase consisted of acetonitrile containing 0.1% acetic acid and water containing 0.1% acetic acid (85:15) with a flow rate of 200 μL/min. […]
(§3) The Km, Vmax, and IC50 values were determined using Prism software (version 6.0; GraphPad Software Inc., San Diego, CA, USA).

[2] = target: T2, CYP2C9 (Homo sapiens, UniProt P11712); assay: Kinetic analysis of diclofenac 4′-hydroxylation in Ad-P450 cells; format: in vitro ADME
T2 construct: expressed in transfected cells; host or cells: HepG2 cells infected with Ad-CYP2C9 (1 MOI) together with the four other P450 adenoviruses
Protocol: The column oven temperature was maintained at 40 °C.

[3] = target: T3, CYP3A4 (Homo sapiens, UniProt P08684); assay: Kinetic analysis of midazolam 1′-hydroxylation in Ad-P450 cells; format: in vitro ADME
T3 construct: expressed in transfected cells; host or cells: HepG2 cells infected with Ad-CYP3A4 (10 MOI) together with the four other P450 adenoviruses
Protocol: as §1, §2, §3

[4] = target: T4, CYP2C19 (Homo sapiens, UniProt P33261); assay: Kinetic analysis of omeprazole 5-hydroxylation in Ad-P450 cells; format: in vitro ADME
T4 construct: expressed in transfected cells; host or cells: HepG2 cells infected with Ad-CYP2C19 (2 MOI) together with the four other P450 adenoviruses
Protocol: as §1, §2, §3

[5] = target: T5, CYP1A2 (Homo sapiens, UniProt P05177); details: Phenacetin O-deethylation, Ad-P450 cells, 5 h
T5 sequence (P05177 1-516): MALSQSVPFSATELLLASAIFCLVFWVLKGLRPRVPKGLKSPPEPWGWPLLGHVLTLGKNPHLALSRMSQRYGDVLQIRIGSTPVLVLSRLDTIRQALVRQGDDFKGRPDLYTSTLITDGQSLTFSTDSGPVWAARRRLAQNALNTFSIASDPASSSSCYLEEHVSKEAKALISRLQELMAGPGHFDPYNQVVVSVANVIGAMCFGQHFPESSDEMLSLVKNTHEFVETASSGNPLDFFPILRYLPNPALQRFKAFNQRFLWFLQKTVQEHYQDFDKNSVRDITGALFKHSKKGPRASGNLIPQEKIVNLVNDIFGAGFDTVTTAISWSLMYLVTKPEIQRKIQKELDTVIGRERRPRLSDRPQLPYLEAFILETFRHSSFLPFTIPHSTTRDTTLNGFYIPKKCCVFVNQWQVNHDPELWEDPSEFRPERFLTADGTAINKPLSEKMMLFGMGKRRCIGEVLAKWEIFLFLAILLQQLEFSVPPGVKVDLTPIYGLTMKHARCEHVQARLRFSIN
Protocol: as §1, §2, §3

[6] = system: CYP1A2; details: cited from earlier work
[7] = system: CYP2C9; details: competitive inhibitor; cited from earlier work
[8] = system: CYP3A4; details: cited from earlier work
[9] = target: T5, CYP1A2; assay: CYP1A2 inhibition (phenacetin O-deethylation) in Ad-P450 cells, substrate cocktail; format: in vitro ADME; set-up: expressed in transfected cells; host or cells: HepG2 cells infected with Ad-CYP1A2 (5 MOI) together with the four other P450 adenoviruses; details: probe phenacetin (O-deethylation), read-out: Residual activity CYP1A2
[10] = target: T4, CYP2C19; assay: CYP2C19 inhibition (omeprazole 5-hydroxylation) in Ad-P450 cells, substrate cocktail; format: in vitro ADME; details: probe omeprazole (5-hydroxylation), read-out: Residual activity CYP2C19
[11] = target: T1, CYP2D6; assay: CYP2D6 inhibition (dextromethorphan O-demethylation) in Ad-P450 cells, substrate cocktail; format: in vitro ADME; details: read-out: Residual activity CYP2D6
[12] = target: T3, CYP3A4; assay: CYP3A4 inhibition (midazolam 1′-hydroxylation) in Ad-P450 cells, substrate cocktail; format: in vitro ADME; details: probe midazolam (1′-hydroxylation), read-out: Residual activity CYP3A4

T1 sequence (P10635 whole entry): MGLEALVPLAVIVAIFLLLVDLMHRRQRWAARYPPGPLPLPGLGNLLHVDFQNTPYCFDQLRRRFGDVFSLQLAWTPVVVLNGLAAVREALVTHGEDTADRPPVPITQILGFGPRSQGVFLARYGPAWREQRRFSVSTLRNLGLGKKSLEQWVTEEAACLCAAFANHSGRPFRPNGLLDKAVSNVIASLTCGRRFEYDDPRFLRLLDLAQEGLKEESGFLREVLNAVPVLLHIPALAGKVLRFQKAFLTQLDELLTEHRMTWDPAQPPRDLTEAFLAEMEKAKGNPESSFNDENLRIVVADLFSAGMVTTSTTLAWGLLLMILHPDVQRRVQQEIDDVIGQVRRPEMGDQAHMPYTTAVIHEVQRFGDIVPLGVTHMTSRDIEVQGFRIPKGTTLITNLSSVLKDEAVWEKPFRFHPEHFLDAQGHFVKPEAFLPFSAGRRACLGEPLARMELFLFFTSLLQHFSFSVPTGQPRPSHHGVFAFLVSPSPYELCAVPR
T4 sequence (P33261 whole entry): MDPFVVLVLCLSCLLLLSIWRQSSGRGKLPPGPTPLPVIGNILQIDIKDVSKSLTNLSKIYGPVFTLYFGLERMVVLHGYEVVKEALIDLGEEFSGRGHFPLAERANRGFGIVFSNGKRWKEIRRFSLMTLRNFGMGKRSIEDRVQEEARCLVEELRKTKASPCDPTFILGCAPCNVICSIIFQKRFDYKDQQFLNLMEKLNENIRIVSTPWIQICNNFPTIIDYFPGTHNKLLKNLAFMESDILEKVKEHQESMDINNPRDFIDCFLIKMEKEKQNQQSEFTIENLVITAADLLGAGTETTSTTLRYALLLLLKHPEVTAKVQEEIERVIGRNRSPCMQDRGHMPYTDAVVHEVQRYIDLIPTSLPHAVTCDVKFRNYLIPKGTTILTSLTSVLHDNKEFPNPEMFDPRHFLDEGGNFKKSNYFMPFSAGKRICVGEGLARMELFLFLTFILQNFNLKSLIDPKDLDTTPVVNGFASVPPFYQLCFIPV
T3 sequence (P08684 whole entry): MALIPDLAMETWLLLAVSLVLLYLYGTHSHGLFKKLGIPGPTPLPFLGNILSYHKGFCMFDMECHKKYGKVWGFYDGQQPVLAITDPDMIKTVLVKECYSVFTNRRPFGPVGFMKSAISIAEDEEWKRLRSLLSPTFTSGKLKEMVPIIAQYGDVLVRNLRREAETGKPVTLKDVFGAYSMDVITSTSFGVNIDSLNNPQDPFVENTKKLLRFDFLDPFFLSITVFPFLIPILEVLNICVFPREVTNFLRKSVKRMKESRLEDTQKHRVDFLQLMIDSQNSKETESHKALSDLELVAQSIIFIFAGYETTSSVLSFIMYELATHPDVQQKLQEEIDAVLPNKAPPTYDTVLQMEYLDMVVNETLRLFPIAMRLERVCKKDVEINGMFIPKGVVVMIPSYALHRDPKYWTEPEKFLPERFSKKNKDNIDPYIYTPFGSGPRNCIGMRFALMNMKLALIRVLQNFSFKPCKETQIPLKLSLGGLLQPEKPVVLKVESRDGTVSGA
T2 sequence (P11712 whole entry): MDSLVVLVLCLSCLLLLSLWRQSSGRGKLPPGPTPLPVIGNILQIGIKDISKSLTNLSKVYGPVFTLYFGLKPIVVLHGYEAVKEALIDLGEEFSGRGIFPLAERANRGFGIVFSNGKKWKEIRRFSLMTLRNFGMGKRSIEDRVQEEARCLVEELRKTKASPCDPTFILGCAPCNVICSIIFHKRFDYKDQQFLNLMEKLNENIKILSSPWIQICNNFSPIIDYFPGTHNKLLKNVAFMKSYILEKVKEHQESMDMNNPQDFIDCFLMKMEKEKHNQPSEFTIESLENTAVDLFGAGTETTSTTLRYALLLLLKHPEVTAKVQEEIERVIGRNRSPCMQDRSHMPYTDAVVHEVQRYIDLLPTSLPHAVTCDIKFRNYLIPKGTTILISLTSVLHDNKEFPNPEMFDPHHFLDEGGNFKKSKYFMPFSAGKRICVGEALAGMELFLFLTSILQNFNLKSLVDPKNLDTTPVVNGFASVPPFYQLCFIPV

Compound `COc1ccc2c(c1)[C@]13CCCC[C@@H]1[C@H](C2)N(C)CC3` [Dextromethorphan] has a Vmax ([1]; Dextromethorphan O-demethylation, Ad-P450 cells, 5 h) of 1.10 pmol/well/hr and a Km at 5 h ([1]; human) of 17.1 µM.
For `O=C(O)Cc1ccccc1Nc1c(Cl)cccc1Cl` [Diclofenac], the Vmax ([2]; 5 h) was 239.9 pmol/well/hr and the Km at 5 h ([2]; human) was 5.87 µM.
Compound `Cc1ncc2n1-c1ccc(Cl)cc1C(c1ccccc1F)=NC2` [Midazolam] has a Vmax ([3]; Midazolam 1′-hydroxylation, Ad-P450 cells, 5 h) of 12.30 pmol/well/hr and a Km at 5 h ([3]; human) of 1000 nM.
`COc1ccc2[nH]c([S+]([O-])Cc3ncc(C)c(OC)c3C)nc2c1` (stereo not shown) [Omeprazole] gave a Vmax ([4]; 5 h) of 4.66 pmol/well/hr and a Km at 5 h ([4]; human) of 2750 nM.
Work on `CCOc1ccc(NC(C)=O)cc1` [Phenacetin] yielded a Vmax [5] of 100.30 pmol/well/hr.
For `c1cc2c(cc1[C@H]1OC[C@H]3[C@@H]1CO[C@@H]3c1ccc3c(c1)OCO3)OCO2` [Sesamin], the Ki [6] is given as 75 µM, the Ki [7] is given as 24 µM and the Ki [8] is given as 4.2 µM.
With `COc1cc(/C=C/C(=O)CC(=O)/C=C/c2ccc(O)c(OC)c2)ccc1O` [curcumin] the activity at 5 h, 50 μM [9] was 58.3%, the activity at 5 h, 50 μM [10] was 72.7% and the activity at 5 h, 50 μM [11] was 71.9%. The activity at 5 h, 50 μM [12] was 61.9%.
